# According to ChEMBL document CHEMBL5532711, “Peniapyrones A-I, Cytotoxic Tricyclic-Fused α-Pyrone Derivatives from an Endophytic Penicillium brefeldianum F4a” (J Nat Prod, 2024):
# How the values were obtained:
# Type in all cases: functional, cell-based
# SNU-449 = assay: Cytotoxicity against human SNU-449 cells assessed as inhibition of cell growth
# ASPC1 = assay: Cytotoxicity against human ASPC1 cells harboring KRAS G12D mutant assessed as inhibition of cell growth
# MCF7 = assay: Cytotoxicity against human MCF7 cells assessed as inhibition of cell growth
Compound,IC50 (SNU-449),IC50 (ASPC1),IC50 (MCF7)
Cc1cc2c(c(=O)o1)[C@@]1(C)C=CC(=O)[C@H]1[C@@H](OC[C@H]1C(=O)CC[C@@H]1C)O2,1.2 µM,9400 nM,0.8 µM
Cc1cc2c(c(=O)o1)[C@]1(C)C=CC(=O)[C@@H]1[C@H](OC[C@H]1C(=O)CC[C@@H]1C)O2,> 10 µM,> 10000 nM,> 10 µM
CO[C@@H]1Oc2cc(C)oc(=O)c2[C@]2(C)C=CC(=O)[C@H]12,> 10 µM,> 10000 nM,> 10 µM
C=C1[C@@H](O)C[C@H]2Oc3cc(C)oc(=O)c3[C@@]12C,2.7 µM,1700 nM,0.2 µM
CCO[C@@H]1Oc2cc(C)oc(=O)c2[C@]2(C)C=CC(=O)[C@H]12,1.4 µM,2200 nM,0.7 µM
Cc1cc2c(c(=O)o1)[C@@]1(C)C[C@H](O)C[C@H]1O2,> 10 µM,1500 nM,4.6 µM
Cc1cc2c(c(=O)o1)[C@]1(C)C=CC(=O)[C@@H]1[C@H](O)O2,5.9 µM,1700 nM,5.3 µM
Cc1cc2c(c(=O)o1)[C@@]1(C)[C@H](CO)[C@@H](O)C[C@H]1O2,8.8 µM,> 10000 nM,5.5 µM
Cc1cc2c(c(=O)o1)[C@@]1(C)CC(=O)C[C@H]1O2 (racemic),> 10 µM,2900 nM,9.9 µM
Cc1nc(Nc2ncc(C(=O)Nc3c(C)cccc3Cl)s2)cc(N2CCN(CCO)CC2)n1 [DASATINIB ANHYDROUS],–,3300 nM,> 10 µM
Nc1ccn([C@@H]2O[C@H](CO)[C@@H](O)C2(F)F)c(=O)n1 [GEMCITABINE],> 10 µM,500 nM,–
